Patent US20250221998A1, “DISCOVERY OF COVALENT EGFR INHIBITOR THROUGH CYSTEINE 775” (Dana-Farber Cancer Institute, Inc., priority 2022, published 2025)

Key:
Assay type in all cases: cell-based, murine
[1] = target: EGFR mutant L858R Ba/F3 cells (Homo sapiens, UniProt P00533, L858R, cells depend on it); assay: Ba/F3 cell proliferation (Cell Titer Glo), EGFR L858R; conditions: 72 hours exposure, read-out: L858R BaF3 (μM), inhibitory activity against EGFR mutants
Procedure, shortened: (§1)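 Ba/F3 cells stably expressing retrovirally transduced EGFR L858R, L858R/C797S or L858R/C775S, puromycin-selected. Compound exposure 72 hours in triplicate; viability by Cell Titer Glo ATP luminescence.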

[2] = target: EGFR L858R/C775S Ba/F3 cells (Homo sapiens, UniProt P00533, C775S/L858R, cells depend on it); assay: Ba/F3 cell proliferation (Cell Titer Glo), EGFR L858R/C775S; conditions: 72 hours exposure, read-out: L858R/C775S (μM), inhibitory activity against EGFR mutants
Excerpt: The EGFR mutant L858R Ba/F3 cells have been previously described (Zhou, W., et al. Nature 462, 2009, 1070-1074). The EGFR C797S and C775S mutations were introduced via site directed mutagenesis using the Quick Change Site-Directed Mutagenesis kit into a vector containing EGFR L858R mutation (Stratagene; La Jolla, CA) according to the manufacturer's instructions. All constructs were confirmed by DNA sequencing. The constructs were then shuttled into the retroviral vector JP1540 by either using the Cre-recombination system (Agilent Technologies, Santa Clara, CA) or the In-fusion HD Cloning kit (Takara Bio USA, Inc.; Mountain view, CA). Ba/F3 cells were then infected with retrovirus per standard protocols, as described previously (Zhou, et al, Nature 2009). Stable clones were obtained by selection in puromycin (2 ug/ml). All BaF/3 mutant cells were maintained in RPMI 1640 (Cellgro; Mediatech Inc., Herndon, CA) supplemented with 10% FBS, 100 units/mL penicillin, 100 units/mL streptomycin.
Growth and inhibition of growth was assessed by the Cell Titer Glo assay (Promega, Madison, WI) and was performed according to the manufacturer's instructions. The Cell Titer Glo assay is a luminescence-based method used to determine the number of viable cells based on quantitation of the ATP present, which is directly proportional to the amount of metabolically active cells present. Ba/F3 cells of different EGFR genotypes were exposed to compounds for 72 hours and the number of cells used per experiment was determined empirically as has been previously established (Zhou, et al., Nature 2009). All experimental points were set up in triplicates in 384-well plates. […] The curves were fitted using a non-linear regression model with a sigmoidal dose response.
For inhibitory activity against EGFR mutants, the following designations are used: ≤0·25 μM=A, 0·25 μM˜0.5 μM=B, 0.5 μM˜2.5 μM=C, ≥2.5 μM=D.

[3] = target: EGFR L858R/C797S Ba/F3 cells (Homo sapiens, UniProt P00533, C797S/L858R, cells depend on it); assay: Ba/F3 cell proliferation (Cell Titer Glo), EGFR L858R/C797S; conditions: 72 hours exposure, read-out: L858R/C797S (μM), inhibitory activity against EGFR mutants
Procedure, shortened: as §1

Chain of EGFR L858R/C797S Ba/F3 cells (P00533 whole entry C797S/L858R): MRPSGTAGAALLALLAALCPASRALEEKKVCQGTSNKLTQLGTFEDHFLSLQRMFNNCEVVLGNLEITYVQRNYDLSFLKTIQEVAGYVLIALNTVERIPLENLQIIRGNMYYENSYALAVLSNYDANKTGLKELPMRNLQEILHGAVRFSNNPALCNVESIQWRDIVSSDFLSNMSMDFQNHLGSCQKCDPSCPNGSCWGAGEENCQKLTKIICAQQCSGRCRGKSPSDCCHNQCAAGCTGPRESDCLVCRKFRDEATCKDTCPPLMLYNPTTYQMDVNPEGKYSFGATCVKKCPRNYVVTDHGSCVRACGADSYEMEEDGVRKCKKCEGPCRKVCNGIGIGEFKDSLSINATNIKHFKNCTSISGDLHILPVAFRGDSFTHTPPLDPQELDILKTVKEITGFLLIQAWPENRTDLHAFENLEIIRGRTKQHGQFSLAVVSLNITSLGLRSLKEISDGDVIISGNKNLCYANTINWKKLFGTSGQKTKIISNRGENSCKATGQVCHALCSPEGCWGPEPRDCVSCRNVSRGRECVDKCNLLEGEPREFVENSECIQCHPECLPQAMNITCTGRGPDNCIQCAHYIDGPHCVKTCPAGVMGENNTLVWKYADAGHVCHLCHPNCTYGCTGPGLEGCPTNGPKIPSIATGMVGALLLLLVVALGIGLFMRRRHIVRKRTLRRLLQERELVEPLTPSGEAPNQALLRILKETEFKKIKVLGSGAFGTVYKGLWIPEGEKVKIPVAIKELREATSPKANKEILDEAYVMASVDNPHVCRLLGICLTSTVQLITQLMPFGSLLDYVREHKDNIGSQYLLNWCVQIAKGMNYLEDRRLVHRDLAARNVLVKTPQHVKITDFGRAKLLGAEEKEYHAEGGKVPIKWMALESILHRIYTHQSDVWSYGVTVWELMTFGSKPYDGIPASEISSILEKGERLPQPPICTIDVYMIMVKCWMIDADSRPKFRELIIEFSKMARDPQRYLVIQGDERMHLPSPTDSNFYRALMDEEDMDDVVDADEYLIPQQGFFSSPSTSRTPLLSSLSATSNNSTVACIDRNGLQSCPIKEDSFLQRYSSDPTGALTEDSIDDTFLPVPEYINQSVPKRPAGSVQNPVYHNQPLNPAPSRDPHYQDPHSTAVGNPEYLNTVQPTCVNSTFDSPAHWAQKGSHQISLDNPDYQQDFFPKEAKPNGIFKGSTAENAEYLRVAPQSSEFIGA
Chain of EGFR L858R/C775S Ba/F3 cells (P00533 whole entry C775S/L858R, the tested form may be a part): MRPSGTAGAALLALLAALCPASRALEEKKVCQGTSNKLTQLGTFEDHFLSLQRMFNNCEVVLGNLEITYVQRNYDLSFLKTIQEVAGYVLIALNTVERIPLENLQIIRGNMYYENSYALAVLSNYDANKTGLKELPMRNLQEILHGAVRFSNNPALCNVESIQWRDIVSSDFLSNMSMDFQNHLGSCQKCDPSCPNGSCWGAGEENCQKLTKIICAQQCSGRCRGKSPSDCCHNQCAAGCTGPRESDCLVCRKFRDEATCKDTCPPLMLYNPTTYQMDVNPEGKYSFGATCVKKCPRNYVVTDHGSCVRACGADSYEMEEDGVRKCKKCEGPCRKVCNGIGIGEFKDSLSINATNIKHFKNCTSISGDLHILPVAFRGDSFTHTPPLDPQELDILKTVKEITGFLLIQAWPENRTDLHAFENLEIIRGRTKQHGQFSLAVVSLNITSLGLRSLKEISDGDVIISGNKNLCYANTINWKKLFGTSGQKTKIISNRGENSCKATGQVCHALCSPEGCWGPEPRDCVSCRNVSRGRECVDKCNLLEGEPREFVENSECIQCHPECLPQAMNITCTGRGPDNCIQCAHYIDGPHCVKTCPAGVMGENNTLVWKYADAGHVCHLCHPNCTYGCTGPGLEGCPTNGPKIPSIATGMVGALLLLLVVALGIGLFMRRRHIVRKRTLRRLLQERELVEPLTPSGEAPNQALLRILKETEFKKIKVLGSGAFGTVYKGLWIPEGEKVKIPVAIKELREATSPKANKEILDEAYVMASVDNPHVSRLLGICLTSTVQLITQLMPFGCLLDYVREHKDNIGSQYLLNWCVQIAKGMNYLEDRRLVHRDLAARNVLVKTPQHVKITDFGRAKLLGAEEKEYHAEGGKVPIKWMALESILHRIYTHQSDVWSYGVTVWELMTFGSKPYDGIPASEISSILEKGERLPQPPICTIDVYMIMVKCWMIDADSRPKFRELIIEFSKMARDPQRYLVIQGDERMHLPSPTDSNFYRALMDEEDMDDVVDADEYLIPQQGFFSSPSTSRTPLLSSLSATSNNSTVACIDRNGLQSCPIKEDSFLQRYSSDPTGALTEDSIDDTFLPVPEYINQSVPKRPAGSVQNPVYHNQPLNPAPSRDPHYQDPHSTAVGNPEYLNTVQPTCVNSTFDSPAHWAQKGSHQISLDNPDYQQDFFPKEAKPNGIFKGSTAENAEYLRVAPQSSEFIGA
Chain of EGFR mutant L858R Ba/F3 cells (P00533 whole entry L858R): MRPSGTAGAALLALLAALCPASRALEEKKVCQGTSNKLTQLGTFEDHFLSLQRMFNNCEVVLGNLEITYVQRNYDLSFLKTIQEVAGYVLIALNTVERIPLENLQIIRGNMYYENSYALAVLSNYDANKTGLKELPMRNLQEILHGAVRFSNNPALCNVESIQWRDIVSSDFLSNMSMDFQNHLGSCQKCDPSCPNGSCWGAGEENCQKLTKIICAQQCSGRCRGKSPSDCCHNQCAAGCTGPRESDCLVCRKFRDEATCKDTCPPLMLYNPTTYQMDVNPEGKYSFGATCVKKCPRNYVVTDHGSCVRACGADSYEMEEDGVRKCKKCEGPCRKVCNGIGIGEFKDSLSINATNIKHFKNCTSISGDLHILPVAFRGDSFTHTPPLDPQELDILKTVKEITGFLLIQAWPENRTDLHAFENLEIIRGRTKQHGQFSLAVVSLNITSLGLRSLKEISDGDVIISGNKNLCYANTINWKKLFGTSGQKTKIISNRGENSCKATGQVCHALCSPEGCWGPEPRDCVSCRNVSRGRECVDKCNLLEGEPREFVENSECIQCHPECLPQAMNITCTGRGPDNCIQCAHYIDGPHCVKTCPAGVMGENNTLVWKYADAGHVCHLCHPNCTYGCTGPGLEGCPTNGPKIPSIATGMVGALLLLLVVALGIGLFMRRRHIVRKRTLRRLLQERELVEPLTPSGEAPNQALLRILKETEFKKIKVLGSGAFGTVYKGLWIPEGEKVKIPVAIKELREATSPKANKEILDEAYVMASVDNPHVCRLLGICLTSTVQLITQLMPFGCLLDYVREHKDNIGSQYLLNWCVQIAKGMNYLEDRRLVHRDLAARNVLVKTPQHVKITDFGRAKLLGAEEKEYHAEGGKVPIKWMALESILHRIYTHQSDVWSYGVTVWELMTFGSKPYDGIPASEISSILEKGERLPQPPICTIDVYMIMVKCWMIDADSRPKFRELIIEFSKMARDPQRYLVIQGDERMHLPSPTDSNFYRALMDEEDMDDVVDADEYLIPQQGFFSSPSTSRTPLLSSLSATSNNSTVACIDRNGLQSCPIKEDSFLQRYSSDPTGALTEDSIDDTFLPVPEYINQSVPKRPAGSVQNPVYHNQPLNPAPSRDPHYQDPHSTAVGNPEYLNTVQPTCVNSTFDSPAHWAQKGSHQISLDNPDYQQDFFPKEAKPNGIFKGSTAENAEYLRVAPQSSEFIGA

| Structure (SMILES) | GI50 [1] [µM] | GI50 [2] [µM] | GI50 [3] [µM] |
| --- | --- | --- | --- |
| C=CC(=O)Nc1ccccc1Oc1cc2cnc(Nc3ccc(N4CCN(C)CC4)nc3)nc2n(C)c1=O [Compound 005] | 0.5 to 2.5 | ≥ 2.5 | ≥ 2.5 |
| C=CC(=O)N1CCc2cccc(Oc3cc4cnc(Nc5ccc(N6CCN(C)CC6)cc5)nc4n(C)c3=O)c21 [Compound 003] | 0.5 to 2.5 | 0.5 to 2.5 | ≥ 2.5 |
| C=CC(=O)Nc1ccccc1Cc1cc2cnc(Nc3ccc(N4CCN(C)CC4)cc3)nc2n(C)c1=O [Compound 001, N-[2-[[8-methyl-2-[4-(4-methylpiperazin-1-yl)anilino]-7-oxo-pyrido[2,3-d]pyrimidin-6-yl]methyl]phenyl]prop-2-enamide] | 0.25 to 0.5 | 0.5 to 2.5 | 0.5 to 2.5 |
| C=CC(=O)Nc1ccccc1Oc1cc2cnc(Nc3ccc(N4CCN(C)CC4)cc3OC)nc2n(C)c1=O [Compound 004] | 0.25 to 0.5 | ≥ 2.5 | 0.5 to 2.5 |
| C=CC(=O)Nc1ccccc1Oc1cc2cnc(Nc3ccc(N4CCN(C)CC4)cc3)nc2n(C)c1=O [Compound 002, N-[2-[8-methyl-2-[4-(4-methylpiperazin-1-yl)anilino]-7-oxo-pyrido[2,3-d]pyrimidin-6-yl]oxyphenyl]prop-2-enamide] | ≤ 0.25 | ≥ 2.5 | 0.25 to 0.5 |

More lines, now with the values ahead:

| GI50 [1] [µM] | GI50 [2] [µM] | GI50 [3] [µM] | Structure (SMILES) |
| --- | --- | --- | --- |
| ≤ 0.25 | ≥ 2.5 | ≤ 0.25 | C=CC(=O)N1CCN(c2cc3cnc(Nc4ccc(N5CCN(C)CC5)cc4)nc3n(C)c2=O)c2ccccc21 [Compound 010, 8-methyl-2-[4-(4-methylpiperazin-1-yl)anilino]-6-(4-prop-2-enoyl-2,3-dihydroquinoxalin-1-yl)pyrido[2,3-d]pyrimidin-7-one] |
| 0.5 to 2.5 | ≥ 2.5 | ≥ 2.5 | C=CC(=O)Nc1ccccc1Oc1cc2cnc(Nc3ccc(N4CCN(C)CC4)cc3)nc2n(-c2cccc(NC(C)=O)c2)c1=O [Compound 008] |
| 0.25 to 0.5 | ≥ 2.5 | ≥ 2.5 | C#CC(=O)Nc1ccccc1Oc1cc2cnc(Nc3ccc(N4CCN(C)CC4)cc3)nc2n(C)c1=O [Compound 006, N-[2-[8-methyl-2-[4-(4-methylpiperazin-1-yl)anilino]-7-oxo-pyrido[2,3-d]pyrimidin-6-yl]oxyphenyl]prop-2-ynamide] |
| ≥ 2.5 | ≥ 2.5 | ≥ 2.5 | C=CC(=O)N1CCN(c2cc3cnc(Nc4ccc(N5CCN(C)CC5)cc4)nc3n(C)c2=O)CC1 [Compound 009, 8-methyl-2-[4-(4-methylpiperazin-1-yl)anilino]-6-(4-prop-2-enoylpiperazin-1-yl)pyrido[2,3-d]pyrimidin-7-one] |
| 0.25 to 0.5 | ≥ 2.5 | ≥ 2.5 | C=CC(=O)Nc1ccccc1Oc1cc2cnc(Nc3ccc(N4CCN(C)CC4)cc3)nc2n(C2CCCN(C(C)=O)C2)c1=O (stereo not drawn) [Compound 007, N-[2-[8-(1-acetyl-3-piperidyl)-2-[4-(4-methylpiperazin-1-yl)anilino]-7-oxo-pyrido[2,3-d]pyrimidin-6-yl]oxyphenyl]prop-2-enamide] |
